Measured values from patent publication US7365071B2, “Heterocyclic compounds, preparation process and intermediates, and use as medicaments, in particular as β-lactamase inhibitors and antibacterials” (priority 2002, dated 2008).
Counter-ions that a name gives are not always drawn. Like-named read-outs stand apart in the source and are kept apart here.

Experiments:
β-lactamase Tem-1 = target: T1, β-lactamase Tem-1 (Escherichia coli, UniProt P62593); test: Inhibitory activity for β-lactamases (nitrocefin hydrolysis); format: biochemical, E. coli 250HT21
T1 construct: The β-lactamases are isolated from bacterial strains resistant to penicillins and to cephalosporins; endogenous in cells; host or cells: E. coli 250HT21, soluble fraction of French-press lysate
Procedure: (§1) II/Inhibitory Activity for β-Lactamases
(§2) A. Preparation of the β-Lactamases Tem-1 and P99
(§3) The β-lactamases are isolated from bacterial strains resistant to penicillins and to cephalosporins (Tem1 and P99 are produced respectively by E. coli 250HT21 and E. Cloacae 293HT6).
(§4) The bacteria are cultured in 37 g/l brain-heart broth (DIFCO) at 37° C. They are harvested in the exponential phase, cooled and centrifuged. The bacterial pellets are taken up in 50 mM sodium phosphate buffer, pH 7.0, and are again centrifuged. The bacteria are taken up in two volumes of the same buffer and lyzed using a French press maintained at 4° C. After centrifuging for 1 h at 100 000 g at 4° C., the supernatants comprising the soluble fraction of the bacterial extracts are recovered and frozen at −80° C.
(§5) B. Determination of the β-Lactamase Activity
(§6) The method uses nitrocefin (Oxoid), a chromogenic cephalosporin, the product of hydrolysis by β-lactamases of which is red and absorbed at 485 nm, as substrate. The β-lactamase activity is determined kinetically by the measurement, on a plate spectrophotometer (Spectra Max Plus from Molecular Devices), of the variation in absorbance at 485 nm resulting from the hydrolysis of the substrate. The experiments are carried out at 37° C. The amount of enzyme was standardized and the measurements are carried out at the initial rate.
(§7) C. Determination of the Inhibitory Activity for β-Lactamases
(§8) Two measurements are carried out, without preincubation and with preincubation of the enzyme and of the inhibitor (5 min), in order to test the irreversibility of the reaction. The products are tested at 6 or 8 concentrations in duplicate. The reaction mixture comprises 100 μM nitrocefin and 50 mM sodium phosphate buffer, pH 7.0.
(§9) D. Calculations of the IC50 Values
(§10) The rates of hydrolysis are measured with and without inhibitor. The concentration of inhibitor which inhibits by 50% the reaction for the hydrolysis of nitrocefin by the enzyme is determined (IC50). The processing of the data is carried out using GraFit software (Erathycus Software).

β-lactamase P99 = target: T2, β-lactamase P99 (Enterobacter cloacae, UniProt P05364); test: as above; format: biochemical
T2 construct: The β-lactamases are isolated from bacterial strains resistant to penicillins and to cephalosporins; endogenous in cells; host or cells: Enterobacter cloacae 293HT6, soluble fraction of French-press lysate
Procedure: as §1, §2, §3, §4, §5, §6, §7, §8, §9, §10

[1] = after 5 min of preincubation with the enzyme, 100 μM nitrocefin, 50 mM sodium phosphate buffer pH 7.0, 37° C., read-out: IC50 nM/TEM1
[2] = after 5 min of preincubation with the enzyme, 100 μM nitrocefin, 50 mM sodium phosphate buffer pH 7.0, 37° C., read-out: IC50 nM/P99

T2 sequence (P05364 21-381): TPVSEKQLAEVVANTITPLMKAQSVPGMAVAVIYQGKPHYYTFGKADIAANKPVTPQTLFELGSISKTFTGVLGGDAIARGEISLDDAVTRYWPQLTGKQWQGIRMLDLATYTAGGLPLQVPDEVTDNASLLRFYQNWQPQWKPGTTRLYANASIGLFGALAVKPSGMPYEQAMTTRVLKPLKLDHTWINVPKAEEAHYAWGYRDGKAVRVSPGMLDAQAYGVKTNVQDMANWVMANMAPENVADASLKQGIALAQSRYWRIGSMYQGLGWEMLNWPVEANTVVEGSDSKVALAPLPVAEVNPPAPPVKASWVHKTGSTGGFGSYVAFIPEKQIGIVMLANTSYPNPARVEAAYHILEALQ
T1 sequence (P62593 24-286 limits assumed): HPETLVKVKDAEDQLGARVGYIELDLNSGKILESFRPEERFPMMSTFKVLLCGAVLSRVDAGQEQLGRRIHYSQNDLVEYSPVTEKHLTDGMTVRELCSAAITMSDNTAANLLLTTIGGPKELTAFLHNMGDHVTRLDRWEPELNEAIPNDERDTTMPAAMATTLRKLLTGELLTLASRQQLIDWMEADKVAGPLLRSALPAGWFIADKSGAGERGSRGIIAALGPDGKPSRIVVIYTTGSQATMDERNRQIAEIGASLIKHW

Compound	IC50 (β-lactamase Tem-1) [nM]	IC50 (β-lactamase P99) [nM]	IC50 (β-lactamase Tem-1; [1]) [nM]	IC50 (β-lactamase P99; [2]) [nM]
CS(=O)(=O)N1c2ccccc2C2CN1C(=O)N2OCC(=O)O (stereo not shown) [Example 5, N-(1-Methylethyl)-2-propanaminium salt of [[1,5-dihydro-1-(methylsulfonyl)-3-oxo-2,5-methano-2H-1,2,4-benzotriazepin-4(3H)-yl]oxy]acetic acid]	570000	460000		
C=CCON1C(=O)N2CC1c1ccccc1N2Cc1cccnc1 (stereo not shown) [Example 14, 4,5-Dihydro-4-(2-propenyloxy)-1-(3-pyridinylmethyl)-2,5-methano-2H-1,2,4-benzotriazepin-3(1H)-one]			26000	17000
CCOC(=O)CN1c2ccccc2C2CN1C(=O)N2OS(=O)(=O)O (stereo not shown) [Example 27, Sodium Salt of Ethyl 4,5-dihydro-3-oxo-4-(sulfoxy)-2,5-methano-2-H-1,2,4-benzotriazepine-1(3H)-acetate]			7500	530
O=C(O)CON1C(=O)N2CC1c1ccccc1N2C(=O)NC(=O)c1ccccc1 (stereo not shown) [Example 7, N-(1-Methylethyl)-2-propanaminium salt of [[1-[(benzoylamino)carbonyl]-1,5-dihydro-3-oxo-2,5-methano-2H-1,2,4-benzotriazepin-4(3H)-yl]oxy]acetic acid]	110000	63000		
O=C(O)CON1C(=O)N2CC1c1ccccc1N2C(=O)NS(=O)(=O)c1ccccc1 (stereo not shown) [Example 9, Bis[N-(1-methylethyl)-2-propanaminium] salt of [[1,5-dihydro-3-oxo-1-[[(phenylsulfonyl)amino]carbonyl]-2,5-methano-2H-1,2,4-benzotriazepin-4(3H)-yl]oxy]acetic acid]	160000	180000		
C=CCON1C(=O)N2CC1c1ccccc1N2C(=O)NS(=O)(=O)c1ccccc1 (stereo not shown) [Example 15, 4,5-Dihydro-3-oxo-N-(phenylsulfonyl)-4-(2-propenyloxy)-2,5-methano-2H-1,2,4-benzotriazepin-1(3H)-carboxamide]			450000	110000
O=C(O)CON1C(=O)N2CC1c1ccccc1N2 (stereo not shown) [Example 11, N-(1-Methylethyl)-2-propanaminium salt of [(1,5-dihydro-3-oxo-2,5-methano-2H-1,2,4-benzotriazepin-4(3H)-yl)oxy]acetate acid]	14000	15000		
CN1c2ccccc2C2CN1C(=O)N2OS(=O)(=O)O (stereo not shown) [Example 28, Sodium salt of 4,5-dihydro-1-methyl-4-(sulfooxy)-2,5-methano-2H-1,2,4-benzotriazepin-3(1H)-one]			12000	37000
